Values joined by “and” are separate entries in the source; they are usually repeats but may differ in a detail not shown here. Equal values may be shown once. Where a name gives a salt, the structure may show the parent alone. Each block holds one compound with its values, some of them ahead of it.
How the values were obtained:
[1] = Butanol/water partitioning of dye salts (Example 2); details: for Absorbance of Base in Butanol: butanol layer; for Partition Ratio of Butanol Absorbance to Water Absorbance: corrected by intensity factor; for Absorbance of Base in Water: water layer
Method: The five dye solutions were then treated with 1 equivalent of each base listed in Tables 1-5 (i.e., sodium hydroxide, TRIS, and triethylamine) to form salt solutions (i.e., sodium salt solutions, TRIS salt solutions, and triethylamine salt solutions respectively).
A 50 μL portion of each salt solution was then mixed with 950 μL water and 1000 μL butanol. […] Where necessary to deal with lingering interface phases, the samples were centrifuged.
Tests were then performed on the respective salt solutions to determine whether the salts of the respective dyes dissolved preferentially in butanol (a more lipophilic solvent) or water (a less lipophilic solvent). […] Spectroscopy versus the butanol blank or the water blank was done as 50 μL upper (butanol) or lower (aqueous) phase plus 950 μL corresponding solvent. All absorbances were blanked on solvent in a quartz cuvette and were baseline corrected at an absorbance of 900 nm before subsequent calculations to correct for cuvette placement, dust, etc. All absorbances were then measured at the wavelengths noted below.
Before determining the butanol to water absorbance levels, the absorbance of the solute in butanol was corrected for solvent dependent shifts in wavelength maximum and intensity based on the reference spectra of known gravimetric quantities of the dye salts in butanol and water. For such cases, the partition ratio of butanol absorbance to water absorbance was calculated using the following formula: Partition Ratio=Sample Absorbance in Butanol×Intensity Factor/Sample Absorbance in Water where the intensity factor was calculated using the following formula: Intensity Factor=Reference Sample Absorbance at λmax in water/Reference Sample Absorbance at λmax in butanol The intensity factor adjusts for those cases where the same concentration of dye in the two different solvents produced two different absorbances.

[2] = Butanol/water partitioning of pyrogallol red dye salts (Example 3); format: physicochemical; details: 276 nm; for Absorbance of Dye Salt in Butanol: butanol layer; for Absorbance of Dye Salt in Water: water layer
Method: Extractions were then performed in Mixxor extractors.

[3] = biological target: human serum albumin (HSA) (Homo sapiens, UniProt P02768); assay: Automated protein assay with pyrogallol red salts, 74 μM (Example 6); details: HSA 25 mg/dL; 10 minutes, 37° C; 900 nm baseline subtracted; Series #1 and #2
Method: The dilutor was programmed for reactions of 180 μL reagent+40 μL sample. […] The samples were phosphate buffered saline (blank), human serum albumin (HSA) 25 mg/dL, and other proteins (i.e., human IgG, […], and Lambda Light Chain) at 25 mg/dL. Absorbance data were collected on a Biotek, Powerwave X Microplate Absorbance reader using BioTek “KC Jr” software to determine the relative detection of the different proteins (i.e., HSA, human IgG, […], and Lambda Light Chain) using salts of pyrogallol red. Two sets of replicates of the different proteins were run. […] The protein response was determined by subtracting the phosphate buffered saline sample reaction result from the protein reaction result.

human IgG = assay: as above; details: Series #1 and #2; for average net absorbance at 600 nm after subtracting PBS sample reaction result: IgG 25 mg/dL, 10 minutes, 37° C, 900 nm baseline subtracted; for Percent Detection as Percentage of HSA Detection: IgG
Method: (§1) The dilutor was programmed for reactions of 180 μL reagent+40 μL sample. […] The samples were phosphate buffered saline (blank), human serum albumin (HSA) 25 mg/dL, and other proteins (i.e., human IgG, […], and Lambda Light Chain) at 25 mg/dL. Absorbance data were collected on a Biotek, Powerwave X Microplate Absorbance reader using BioTek “KC Jr” software to determine the relative detection of the different proteins (i.e., HSA, human IgG, […], and Lambda Light Chain) using salts of pyrogallol red. Two sets of replicates of the different proteins were run. […] The protein response was determined by subtracting the phosphate buffered saline sample reaction result from the protein reaction result. […] The results for protein equivalence of the non-albumin proteins were expressed as a percentage of the protein colorimetric response to HSA as shown in Table 11 below.

Tamm-Horsfall = Tamm-Horsfall (Homo sapiens, UniProt P07911); assay: as above; details: Series #1 and #2; for average net absorbance at 600 nm after subtracting PBS sample reaction result: Tamm-Horsfall 25 mg/dL, 10 minutes, 37° C, 900 nm baseline subtracted; for Percent Detection as Percentage of HSA Detection: Tamm-Horsfall
Method: as §1

Lambda Light Chain = assay: as above; details: Series #1 and #2; for average net absorbance at 600 nm after subtracting PBS sample reaction result: Lambda Light Chain 25 mg/dL, 10 minutes, 37° C, 900 nm baseline subtracted; for Percent Detection as Percentage of HSA Detection: Lambda Light Chain
Method: as §1

[4] = erythrosin salts, reference absorbance in water / in butanol
[5] = rosolic acid salts, aqueous reference saturated with butanol
[6] = rosolic acid salts, λmax 562 nm
[7] = rosolic acid salts, λmax 547 nm, four times less dilute solution measured, absorbance divided by four
[8] = bromocresol green salts, λmax 630 nm
[9] = bromocresol green salts, reference absorbance in water / in butanol
[10] = bromocresol green salts, λmax 615 nm
[11] = 8-anilino-1-sulfonic acid salts
[12] = 8-anilino-1-sulfonic acid salts, λmax 269 nm
[13] = 8-anilino-1-sulfonic acid salts, reference absorbance in water / in butanol
[14] = 8-anilino-1-sulfonic acid salts, λmax 265 nm

Sequence of human serum albumin (HSA) (P02768 25-609): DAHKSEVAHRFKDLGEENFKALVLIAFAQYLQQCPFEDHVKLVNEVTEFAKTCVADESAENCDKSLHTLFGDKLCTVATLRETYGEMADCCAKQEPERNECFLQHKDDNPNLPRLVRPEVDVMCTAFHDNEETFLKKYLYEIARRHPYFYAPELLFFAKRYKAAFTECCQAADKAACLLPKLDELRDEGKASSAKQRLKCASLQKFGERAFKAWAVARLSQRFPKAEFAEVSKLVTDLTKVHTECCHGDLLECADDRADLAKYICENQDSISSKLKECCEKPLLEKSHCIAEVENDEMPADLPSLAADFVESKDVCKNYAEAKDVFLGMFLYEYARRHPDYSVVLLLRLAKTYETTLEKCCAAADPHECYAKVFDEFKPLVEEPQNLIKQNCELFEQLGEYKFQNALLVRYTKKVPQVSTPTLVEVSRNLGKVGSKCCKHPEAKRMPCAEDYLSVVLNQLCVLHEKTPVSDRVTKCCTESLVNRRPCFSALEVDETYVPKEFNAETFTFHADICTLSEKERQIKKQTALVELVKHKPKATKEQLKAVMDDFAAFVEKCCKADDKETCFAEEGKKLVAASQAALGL

Compound: O=c1ccc2c(-c3ccccc3S(=O)(=O)O)c3ccc(O)c(O)c3oc-2c1O [TRIS Pyrogallol Red Salt, pyrogallol red]
Ratio of Butanol Absorbance to Water Absorbance ([2]; TRIS): 0.13
Absorbance of Dye Salt in Butanol ([2]; TRIS): 0.041
Absorbance of Dye Salt in Water ([2]; TRIS): 0.326
average net absorbance at 600 nm after subtracting PBS sample reaction result [3]: 0.0750
average net absorbance at 600 nm after subtracting PBS sample reaction result (human IgG): 0.0410
Percent Detection as Percentage of HSA Detection (human IgG): 55%
average net absorbance at 600 nm after subtracting PBS sample reaction result (Tamm-Horsfall): 0.0175
Percent Detection as Percentage of HSA Detection (Tamm-Horsfall): 23%
average net absorbance at 600 nm after subtracting PBS sample reaction result (Lambda Light Chain): 0.0030
Percent Detection as Percentage of HSA Detection (Lambda Light Chain): 4%

Compound: pyrogallol red [Glucamine Pyrogallol Red Salt]
Percent Detection as Percentage of HSA Detection (Lambda Light Chain): 14%

Compound: O=C1C=CC(=C(c2ccc(O)cc2)c2ccc(O)cc2)C=C1 [Rosolic Acid, Sodium Hydroxide, rosolic acid, reference compound]
Raw Ratio of Butanol Absorbance to Water Absorbance ([1]; rosolic acid salts): 1.7
Intensity Factor (IF) [1, 5]: 0.69
Absorbance of Base in Butanol [1, 6]: 0.147
Partition Ratio of Butanol Absorbance to Water Absorbance ([1]; rosolic acid salts): 1.2
Absorbance of Base in Water [1, 7]: 0.085

Compound: O=c1ccc2c(-c3ccccc3S(=O)(=O)O)c3ccc(O)c(O)c3oc-2c1O [Triethylamine Pyrogallol Red Salt, pyrogallol red]
Ratio of Butanol Absorbance to Water Absorbance ([2]; Triethylamine): 0.23
Absorbance of Dye Salt in Butanol ([2]; Triethylamine): 0.063
Absorbance of Dye Salt in Water ([2]; Triethylamine): 0.274
average net absorbance at 600 nm after subtracting PBS sample reaction result [3]: 0.0559 and 0.0600
average net absorbance at 600 nm after subtracting PBS sample reaction result (human IgG): 0.0285 and 0.0284
Percent Detection as Percentage of HSA Detection (human IgG): 48% and 51%
average net absorbance at 600 nm after subtracting PBS sample reaction result (Tamm-Horsfall): 0.0135 and 0.0109
Percent Detection as Percentage of HSA Detection (Tamm-Horsfall): 22% and 19%
Percent Detection as Percentage of HSA Detection (Lambda Light Chain): 3% and 9%

Compound: O=C(O)c1ccccc1-c1c2cc(I)c(=O)c(I)c-2oc2c(I)c(O)c(I)cc12 [Erythrosin, TRIS, erythrosin B]
Raw Ratio of Butanol Absorbance to Water Absorbance ([1]; erythrosin salts): 0.31
Absorbance of Base in Butanol ([1]; erythrosin salts, λmax 536 nm): 0.196
Partition Ratio of Butanol Absorbance to Water Absorbance ([1]; erythrosin salts): 0.28
Intensity Factor (IF) [1, 4]: 0.90
Absorbance of Base in Water ([1]; erythrosin salts, λmax 528 nm): 0.631

Compound: pyrogallol red [Triethylamine Pyrogallol Red Salt]
Percent Detection as Percentage of HSA Detection (Lambda Light Chain; listed as triethylammonium): 3%

Compound: O=C(O)c1ccccc1-c1c2cc(I)c(=O)c(I)c-2oc2c(I)c(O)c(I)cc12 [Erythrosin, Sodium Hydroxide, erythrosin B, reference compound]
Raw Ratio of Butanol Absorbance to Water Absorbance ([1]; erythrosin salts): 0.41
Absorbance of Base in Butanol ([1]; erythrosin salts, λmax 536 nm): 0.237
Partition Ratio of Butanol Absorbance to Water Absorbance ([1]; erythrosin salts): 0.38
Intensity Factor (IF) [1, 4]: 0.93
Absorbance of Base in Water ([1]; erythrosin salts, λmax 528 nm): 0.574

Compound: O=c1ccc2c(-c3ccccc3S(=O)(=O)O)c3ccc(O)c(O)c3oc-2c1O [Glucamine Pyrogallol Red Salt, pyrogallol red]
Ratio of Butanol Absorbance to Water Absorbance ([2]; Glucamine): 0.09
Absorbance of Dye Salt in Butanol ([2]; Glucamine): 0.030
Absorbance of Dye Salt in Water ([2]; Glucamine): 0.328
average net absorbance at 600 nm after subtracting PBS sample reaction result [3]: 0.0618
average net absorbance at 600 nm after subtracting PBS sample reaction result (human IgG): 0.0318
Percent Detection as Percentage of HSA Detection (human IgG): 51%
average net absorbance at 600 nm after subtracting PBS sample reaction result (Tamm-Horsfall): 0.0123
Percent Detection as Percentage of HSA Detection (Tamm-Horsfall): 20%
average net absorbance at 600 nm after subtracting PBS sample reaction result (Lambda Light Chain): 0.0088
Percent Detection as Percentage of HSA Detection (Lambda Light Chain): 14%

Compound: O=c1ccc2c(-c3ccccc3S(=O)(=O)O)c3ccc(O)c(O)c3oc-2c1O [Triethanolamine Salt, pyrogallol red]
Ratio of Butanol Absorbance to Water Absorbance ([2]; Triethanolamine): 0.15
Absorbance of Dye Salt in Butanol ([2]; Triethanolamine): 0.044
Absorbance of Dye Salt in Water ([2]; Triethanolamine): 0.296

Compound: O=S(=O)(O)c1cccc2cccc(Nc3ccccc3)c12 [8-Anilino-1-Sulfonic Acid, Triethylamine, 8-anilino-1-sulfonic acid]
Raw Ratio of Butanol Absorbance to Water Absorbance [1, 11]: 3.4
Absorbance of Base in Butanol [1, 12]: 0.156
Partition Ratio of Butanol Absorbance to Water Absorbance [1, 11]: 3.5
Intensity Factor (IF) [1, 13]: 1.01
Absorbance of Base in Water [1, 14]: 0.045

Further lines, results first:

Raw Ratio of Butanol Absorbance to Water Absorbance ([1]; erythrosin salts): 0.40
Absorbance of Base in Butanol ([1]; erythrosin salts, λmax 536 nm): 0.240
Partition Ratio of Butanol Absorbance to Water Absorbance ([1]; erythrosin salts): 0.42
Intensity Factor (IF) [1, 4]: 1.04
Absorbance of Base in Water ([1]; erythrosin salts, λmax 528 nm): 0.596
Compound: O=C(O)c1ccccc1-c1c2cc(I)c(=O)c(I)c-2oc2c(I)c(O)c(I)cc12 [Erythrosin, Triethylamine, erythrosin B]

Raw Ratio of Butanol Absorbance to Water Absorbance ([1]; bromocresol green salts): 2.4
Absorbance of Base in Butanol [1, 8]: 0.237
Partition Ratio of Butanol Absorbance to Water Absorbance ([1]; bromocresol green salts): 6.3
Intensity Factor (IF) [1, 9]: 2.58
Absorbance of Base in Water [1, 10]: 0.097
Compound: CC1=C(Br)C(=O)C(Br)=C/C1=C(/c1ccccc1S(=O)(=O)O)c1cc(Br)c(O)c(Br)c1C [Bromocresol Green, Triethylamine, bromocresol green]

Raw Ratio of Butanol Absorbance to Water Absorbance ([1]; rosolic acid salts): 17
Intensity Factor (IF) [1, 5]: 1.07
Absorbance of Base in Butanol [1, 6]: 0.055
Partition Ratio of Butanol Absorbance to Water Absorbance ([1]; rosolic acid salts): 18
Absorbance of Base in Water [1, 7]: 0.003
Compound: O=C1C=CC(=C(c2ccc(O)cc2)c2ccc(O)cc2)C=C1 [Rosolic Acid, TRIS, rosolic acid]

Raw Ratio of Butanol Absorbance to Water Absorbance [1, 11]: 2.6
Absorbance of Base in Butanol [1, 12]: 0.129
Partition Ratio of Butanol Absorbance to Water Absorbance [1, 11]: 2.3
Intensity Factor (IF) [1, 13]: 0.89
Absorbance of Base in Water [1, 14]: 0.050
Compound: O=S(=O)(O)c1cccc2cccc(Nc3ccccc3)c12 [8-Anilino-1-Sulfonic Acid, TRIS, 8-anilino-1-sulfonic acid]

Raw Ratio of Butanol Absorbance to Water Absorbance ([1]; bromocresol green salts): 1.8
Absorbance of Base in Butanol [1, 8]: 0.315
Partition Ratio of Butanol Absorbance to Water Absorbance ([1]; bromocresol green salts): 1.9
Intensity Factor (IF) [1, 9]: 1.03
Absorbance of Base in Water [1, 10]: 0.175
Compound: CC1=C(Br)C(=O)C(Br)=C/C1=C(/c1ccccc1S(=O)(=O)O)c1cc(Br)c(O)c(Br)c1C [Bromocresol Green, Sodium Hydroxide, bromocresol green, reference compound]

Raw Ratio of Butanol Absorbance to Water Absorbance [1, 11]: 1.9
Absorbance of Base in Butanol [1, 12]: 0.121
Partition Ratio of Butanol Absorbance to Water Absorbance [1, 11]: 1.8
Intensity Factor (IF) [1, 13]: 0.98
Absorbance of Base in Water [1, 14]: 0.065
Compound: O=S(=O)(O)c1cccc2cccc(Nc3ccccc3)c12 [8-Anilino-1-Sulfonic Acid, Sodium Hydroxide] [reference compound]

Raw Ratio of Butanol Absorbance to Water Absorbance ([1]; bromocresol green salts): 1.7
Absorbance of Base in Butanol [1, 8]: 0.250
Partition Ratio of Butanol Absorbance to Water Absorbance ([1]; bromocresol green salts): 4.2
Intensity Factor (IF) [1, 9]: 2.47
Absorbance of Base in Water [1, 10]: 0.146
Compound: CC1=C(Br)C(=O)C(Br)=C/C1=C(/c1ccccc1S(=O)(=O)O)c1cc(Br)c(O)c(Br)c1C [Bromocresol Green, TRIS, bromocresol green]

Raw Ratio of Butanol Absorbance to Water Absorbance ([1]; rosolic acid salts): 12
Intensity Factor (IF) [1, 5]: 0.94
Absorbance of Base in Butanol [1, 6]: 0.077
Partition Ratio of Butanol Absorbance to Water Absorbance ([1]; rosolic acid salts): 11
Absorbance of Base in Water [1, 7]: 0.006
Compound: O=C1C=CC(=C(c2ccc(O)cc2)c2ccc(O)cc2)C=C1 [Rosolic Acid, Triethylamine, rosolic acid]
